From patent US7803801B2, “Aminopyridine compounds having Syk inhibitory activity” (Japan Tobacco, Inc., priority 2005, dated 2010)
Structures can show the parent of a compound that is named as a salt. Where two headings read alike, the source gives them in different places.

Assays:
[1] = biological target: GST-Syk Full Protein (human) (Homo sapiens, UniProt P43405); experiment: Syk kinase inhibition test (HTRF method); format: biochemical
Procedure, shortened: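 HTRF read-out: after EDTA termination and 1 h with XL665-streptavidin and Eu-anti-phosphotyrosine, the 665/620 nm ratio was measured. The reaction ran 30 min at 20–25 °C with final 6.4 nM human GST-Syk, 250 nM biotinylated peptide, 100 μM ATP, pH 7.0 HEPES buffer, 2% DMSO.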

[2] = system: cultured human mast cells; experiment: Degranulation inhibition test using cultured human mast cells (IgE cross-linking, β-Hexosaminidase release); format: cell-based; conditions: Mast cell, cultured human mast cells, read-out: human degranulation ave. IC50
Protocol: Degranulation Inhibition Test Using Cultured Human Mast Cells
(1) Separation of Hematopoietic Stem Cells;
After 10 to 60 mL of umbilical cord blood collected with heparin was diluted with an equivalent amount of buffer (0.5% BSA, 2 mM EDTA/PBS-), it was superposed on Ficoll-Paque (Amersham Pharmacia Biotech) (Ficoll/Blood (1:2)) and mononuclear leukocyte fraction was collected by centrifuging it at 400 G (1350 rpm) 4° C. for 30 minutes. After centrifugal washing (1500 rpm, 5 min, 4° C.×3) with buffer, the number of cells was counted and 0.1 mL of CD34 Progenitor Cell Isolation Kit (Miltenyi Biotec), Reagent A1 (Fc blocking) was added for 1×10^8 cells. After agitation, 0.1 mL of Reagent A2 (CD34 antibody-hapten) was added (final volume 0.5 mL/1×10^8 cells) and incubated at 9° C. for further 15 minutes after agitation. After centrifugal washing (1500 rpm, 5 min, 4° C.×3), it was resuspeded in a buffer (0.4 mL) and 0.1 mL of Reagent B (anti hapten antibody-microbeads) was added and agitated (final volume 0.5 mL/1×10^8 cells) and incubated at 9° C. for further 15 minutes. After centrifugal washing (1500 rpm, 5 min, 4° C.×2), it was resuspeded in a buffer (0.5 mL) and loaded on CS column (Miltenyi Biotec) set in MACS (MAgnetic Cell Sorting system; Miltenyi Biotec, Daiichi Pure Chemicals) and washed with 30 mL of buffer to remove CD34^− cells. The column was separated from MACS and eluted with 30 mL of buffer and CD34^+ cells bound to the column were collected and used as a hematopoietic stem cell population.
(2) Acquisition of Human Mast Cells by Long-Term Culturing of Hematopoietic Stem Cells;
The CD34^+ cells separated in (1) were resuspended in Iscove's Modified Dulbecco's Medium (IMDM, Gibco) containing human (rh)SCF (1 μg/mL, Peprotech), rhIL-6 (0.5 μg/mL, Peprotech), rhIL-3 (10 ng/mL, Peprotech), 1% Insulin-Transferrin (Gibco), 5×10^−5M 2-ME (Gibco), 0.1% BSA (Sigma) in a density of 1×10^6 cells/ml and disseminated on 24-well culture plate with a dose of 0.1 mL/well and 0.9 ml of IMDM (Methocult SF^BIT StemCell technology) containing 0.9% methyl cellulose was added and culturing was started. The above culture medium (excluding methyl cellulose) was added in a week and after that 100 μL/well of the above culture medium (further excluding IL-3) was added at an interval of every once a week so that cells were diluted to maintain 10^5 cells/mL/well order and cultured more than about 8 weeks and thereby human culture mast cells were obtained.
(3) Expression Enhancement of FcεRI and Inhibition Test IgE Cross-Linking Stimulating Degranulation;
rhIL-4 (final concentration 1 ng/mL, R & D) and Homo sapiens(h) IgE (final concentration 0.5 μg/mL, CHEMICON) were added to the obtained human culture mast cells, and they were incubated for 5 days to enhance the expression of FcεRI. After incubation, cells were collected and, after centrifugal washing (IMDM), they were disseminated on 96-well culture plate in 5×10^4 cells/80 μL/well.
10 μL of a compound 10-fold diluted with IMDM after dissolved in DMSO (DMSO final concentration 0.1%) was added and reacted at 37° C. for 10 minutes. Further, 10 μL of anti-hIgE Ab (CHEMICON) adjusted to 100 μg/mL (final concentration 10 μg/mL) was added and degranulation was caused by being stimulated at 37° C. for 30 minutes. After centrifugation, 50 μL/well of the supernatant was collected and stored at −40° C. untill the quantity of degranulation was measured. The measurement of quantity of degranulation was performed using enzymatic activity of β-Hexosaminidase contained in the granulates as an index. That is, an equivalent amount of p-nitrophenyl-N-acetyl-β-D-glucosaminide (1 mM) (containing 0.1% Triton X-100) which is a substrate of β-Hexosaminidase was added to 50 μL of the culture filtrate, and after reacted at 37° C. for 2 hours, the reaction was terminated by using 100 μL of Carbonate buffer (0.1M, pH 10). […]

[3] = HTRF, 100 μM ATP, 30 min room temperature, average, read-out: sykHTRF ave IC50
[4] = anti-hIgE stimulation, β-Hexosaminidase index, average
[5] = Tables 1-x, compounds A, read-out: sykHTRF ave IC50
[6] = Tables 2-x, thiophene compounds B, read-out: sykHTRK ave IC50
[7] = Tables 2-x, thiophene compounds B

Compound | IC50 [2, 4] | IC50 [1, 5] | also measured
Cc1ccnc(Nc2cccc(-c3cnc(CCc4ccc(C(=O)N5CCC(O)CC5)cc4)s3)n2)c1 [Compound A-233] | 100 to 1000 nM |  | IC50 [1, 3]: 100 to 1000 nM
Cc1ccnc(Nc2cccc(-c3cnc(Cc4ccc(C(=O)O)cc4)s3)n2)c1 [Compound A-224] | > 1000 nM |  | IC50 [1, 3]: 100 to 1000 nM
Cc1ccnc(Nc2cccc(-c3cnc(C(=O)NC4CCCCC4O)s3)n2)c1 (centres unmarked) [Compound A-67] | > 1000 nM |  | IC50 [1, 3]: 100 to 1000 nM
Cc1ccnc(Nc2cccc(-c3cnc(CCC4CCN(S(C)(=O)=O)CC4)s3)n2)c1 [Compound A-260, N-(6-{2-[2-(1-methanesulfonylpiperidin-4-yl)ethyl]thiazol-5-yl}pyridin-2-yl)-N-(4-methylpyridin-2-yl)amine] | 100 to 1000 nM |  | IC50 [1, 3]: < 100 nM
Cc1ccnc(Nc2cccc(-c3cnc(N4CCC(CNC(=O)CO)CC4)s3)n2)c1 [Compound A-486, 2-hydroxy-N-(1-{5-[6-(4-methylpyridin-2-ylamino)pyridin-2-yl]thiazol-2-yl}piperidin-4-ylmethyl)acetamide] |  | < 100 nM | IC50 ([2]; Tables 1-x, compounds A): 100 to 1000 nM
Cc1ccnc(Nc2cccc(-c3cnc(N(C)CCNC(=O)CO)s3)n2)c1 [Compound A-509, 2-hydroxy-N-[2-(N′-methyl-{5-[6-(4-methylpyridin-2-ylamino)pyridin-2-yl]thiazol-2-yl}amino)ethyl]acetamide] |  | < 100 nM | IC50 ([2]; Tables 1-x, compounds A): 100 to 1000 nM
CON(C)C(=O)[C@H]1CC[C@H](c2ncc(-c3cccc(Nc4cc(C)ccn4)n3)s2)CC1 [Compound A-265] | 100 to 1000 nM |  | IC50 [1, 3]: 100 to 1000 nM
COc1ccnc(Nc2cccc(-c3cnc(N4CCC[C@H]4C(N)=O)s3)n2)c1 [Compound A-541, (S)-1-{5-[6-(4-methoxypyridin-2-ylamino)pyridin-2-yl]thiazol-2-yl}pyrrolidine-2-carboxamide] |  | < 100 nM | IC50 ([2]; Tables 1-x, compounds A): 100 to 1000 nM
Cc1ccnc(Nc2cccc(-c3cnc(N(C)C4CCN(C(=O)CO)CC4)s3)n2)c1 [Compound A-459, 2-hydroxy-1-[4-(N-methyl-N-{5-[6-(4-methylpyridin-2-ylamino)pyridin-2-yl]thiazol-2-yl}amino)piperidin-1-yl]ethanone] |  | < 100 nM | IC50 ([2]; Tables 1-x, compounds A): 100 to 1000 nM
CNC(=O)c1ccc(-c2cccc(Nc3cc(C)ccn3)n2)s1 [Compound B-11, N-methyl-5-[6-(4-methylpyridin-2-ylamino)pyridin-2-yl]thiophene-2-carboxamide] |  |  | IC50 [1, 6]: < 100 nM; IC50 [2, 7]: 100 to 1000 nM
Cc1ccnc(Nc2cccc(-c3cnc(N4CCN(C(=O)OC(C)(C)C)CC4)s3)n2)c1 [Compound A-403] |  | > 1000 nM | IC50 ([2]; Tables 1-x, compounds A): > 1000 nM
Cc1ccnc(Nc2cccc(-c3cnc(CCCCO)s3)n2)c1 [Compound A-132, 4-{5-[6-(4-methylpyridin-2-ylamino)pyridin-2-yl]thiazol-2-yl}butan-1-ol] | 100 to 1000 nM |  | IC50 [1, 3]: < 100 nM
CNC(=O)c1cc(C)c(-c2cccc(Nc3cc(C)ccn3)n2)s1 [Compound B-9] |  |  | IC50 [1, 6]: 100 to 1000 nM; IC50 [2, 7]: 100 to 1000 nM
CC(=O)N1CCC(c2ncc(-c3cccc(Nc4cc(C)ccn4)n3)s2)CC1 [Compound A-94] | 100 to 1000 nM |  | IC50 [1, 3]: 100 to 1000 nM
Cc1ccnc(Nc2cccc(-c3cnc(N4CCSCC4)s3)n2)c1 [Compound A-418] |  | 100 to 1000 nM | IC50 ([2]; Tables 1-x, compounds A): 100 to 1000 nM
CC(=O)N1CCC(N(CC(F)(F)F)c2ncc(-c3cccc(Nc4cc(C)ccn4)n3)s2)CC1 [Compound A-535, 1-{4-[N-{5-[6-(4-methylpyridin-2-ylamino)pyridin-2-yl]thiazol-2-yl}-N-(2,2,2-trifluoroethyl)amino]piperidin-1-yl}ethanone] |  | < 100 nM | IC50 ([2]; Tables 1-x, compounds A): > 1000 nM

Compound | IC50 [2, 4] | IC50 [1, 5] | also measured
COc1ccnc(Nc2cccc(-c3cnc([C@H]4CC[C@H](C(=O)N5CCC(O)CC5)CC4)s3)n2)c1 [Compound A-291] | 100 to 1000 nM |  | IC50 [1, 3]: 100 to 1000 nM
Cc1ccnc(Nc2cccc(-c3cnc(CCc4ccc(N)cc4)s3)n2)c1 [Compound A-218] | 100 to 1000 nM |  | IC50 [1, 3]: 100 to 1000 nM
CC(=O)N[C@H]1CN(C(=O)COCc2ncc(-c3cccc(Nc4cc(C)ccn4)n3)s2)C[C@@H]1O [Compound A-411] |  | > 1000 nM | IC50 ([2]; Tables 1-x, compounds A): > 1000 nM
CC(=O)Nc1ncc(-c2cccc(Nc3cc(C)ccn3)n2)s1 [Compound A-23] | 100 to 1000 nM |  | 
Cc1ccnc(Nc2cccc(-c3cnc(N4CCC[C@H]4C(=O)NCCO)s3)n2)c1 [Compound A-658, N-(2-hydroxyethyl)-(S)-1-{5-[6-(4-methylpyridin-2-ylamino)pyridin-2-yl]thiazol-2-yl}pyrrolidine-2-carboxamide] |  | < 100 nM | 
Cc1ccnc(Nc2cccc(-c3cnc(N(C)C4CCN(C(=O)C5CC5)CC4)s3)n2)c1 [Compound A-512] |  | 100 to 1000 nM | 
Cc1ccnc(Nc2cccc(-c3ccc(CNC[C@H]4CC[C@H](C(=O)O)CC4)s3)n2)c1 [Compound B-118] |  |  | IC50 [1, 6]: 100 to 1000 nM
Cc1ccnc(Nc2cccc(-c3cnc(N(C)CCCCCC(=O)O)s3)n2)c1 [Compound A-645, 6-(N-methyl-N-{5-[6-(4-methylpyridin-2-ylamino)pyridin-2-yl]thiazol-2-yl}amino)hexanoic acid dihydrochloride] |  | < 100 nM | 
CC(=O)N(CCC(=O)O)Cc1ccc(-c2cccc(Nc3cc(C)ccn3)n2)s1 [Compound B-124, 3-(N-acetyl-N-{5-[6-(4-methylpyridin-2-ylamino)pyridin-2-yl]thiophen-2-ylmethyl}amino)propionic acid hydrochloride] |  |  | IC50 [1, 6]: < 100 nM
CCc1ccnc(Nc2cccc(-c3cnc(N4CCC(CC(=O)O)CC4)s3)n2)c1 [Compound A-692, (1-{5-[6-(4-ethylpyridin-2-ylamino)pyridin-2-yl]thiazol-2-yl}piperidin-4-yl)acetic acid dihydrochloride] |  | < 100 nM | 
COC(=O)c1cccc(CN(C)c2ncc(-c3cccc(Nc4cc(C)ccn4)n3)s2)c1 [Compound A-581] |  | 100 to 1000 nM | 
Cc1ccnc(Nc2cccc(-c3cnc(N(CC(N)=O)C(C)C)s3)n2)c1 [Compound A-663, 2-(N-isopropyl-N-{5-[6-(4-methylpyridin-2-ylamino)pyridin-2-yl]thiazol-2-yl}amino)acetamide] |  | < 100 nM | 
O=C(O)CC1CCN(c2ncc(-c3cccc(Nc4cc(C(F)(F)F)ccn4)n3)s2)CC1 [Compound A-635, (1-{5-[6-(4-trifluoromethylpyridin-2-ylamino)pyridin-2-yl]thiazol-2-yl}piperidin-4-yl)acetic acid dihydrochloride] |  | < 100 nM | 
Cc1ccnc(Nc2cccc(-c3cnc(N(C)CCCCC(=O)O)s3)n2)c1 [Compound A-632, 5-(N-methyl-N-{5-[6-(4-methylpyridin-2-ylamino)pyridin-2-yl]thiazol-2-yl}amino)pentanoic acid] |  | < 100 nM | 
Cc1ccnc(Nc2cccc(-c3cnc(NCc4ccccc4)s3)n2)c1 [Compound A-694] |  | 100 to 1000 nM | 
